Structure (SMILES)	melting point
CCC(C=O)(CC)SN(C)C(=O)ON=C1SC(C)(C)C(=O)N1C	105 to 106 °C
CCCOc1nsc(NC(=O)C(C)C)c1C#N	220 to 221 °C
O=C(c1c[nH]c2nc(Cl)ccc12)N1CCN2CCC1CC2	228 to 229 °C
CCSC(=NC(=O)N(C)C)NC(=O)NC	109 to 112 °C
CC1(C)CC(OC(=O)CCC(=O)OC2CC(C)(C)NC(C)(C)C2)CC(C)(C)N1	118 °C
OC1(Cc2nc[nH]n2)CCCc2ccccc21 (stereo unspecified)	105 to 108 °C
COCOc1cccc(F)c1C=NO	102 to 104 °C
CCc1nc2c(O)c(CN(C)C)c(C(=O)N(C)C)cc2n1C	183 to 185 °C
CCOC(=O)c1nn(-c2c(Cl)cc(C(F)(F)F)cc2Cl)cc1OC(F)(F)C(F)Cl (racemic)	105 to 106 °C
COc1ccc(OCCCCCCc2c(C)n[nH]c2O)c(Cl)c1	145 to 146 °C
Cc1cc(Cl)nnc1NN	191 to 192 °C
COc1nc(C(Br)Br)c([N+](=O)[O-])cc1C	58.7 to 61.2 °C
CCCn1c(-c2ccc(C#C[Si](C(C)C)(C(C)C)C(C)C)cc2)nc2cc(C#N)c(C#N)cc21	242 to 243 °C
CC(NC(=O)C(C)(C(C)C)C(C)C)c1ccco1 (stereo unspecified)	57 to 60 °C
CCC1CC2C3CCC4=CC(=O)CCC4=C3C=CC2(C)C1OC(C)=O (stereo unspecified)	95 to 98 °C
CCOC(=O)c1ncn(-c2ccn(C)n2)c1N	168 to 170 °C
CCOC(=O)C(NC(=O)CSC)C(=O)OCC	56 to 58 °C
CCOC(=O)c1cc(C)c2nc(CC)[nH]c2n1	151 to 153 °C
N#C[C@@H]1CCCN1C(=O)CCl	53 to 57 °C
Cc1ccc(C=CC(=O)C=Cc2ccc([N+](=O)[O-])cc2)cc1	182 to 184 °C

Structure (SMILES)	melting point
N#Cc1ccc(C(Cc2ccc(C(F)(F)F)cn2)Cn2cncn2)cc1 (stereo unspecified)	78 °C
CSc1ncc(Br)c(N(C)NC(=O)c2c(Cl)cccc2Cl)n1	254 to 256 °C
CNc1nc(C#N)c(-c2ccncc2)s1	192 to 195 °C
Cc1nc2sc3cc(F)ccc3n2c1CO	230 to 235 °C
CC(C)n1c(NN)nc2ccccc2c1=O	123 to 124 °C
CN(C)CCCN(C)C(=O)c1cc([N+](=O)[O-])c[nH]1	118 to 120 °C
Cc1cc(OCc2coc(/C=C/c3ccc(S(=O)C(F)(F)F)cc3)n2)ccc1CCCCc1c[nH]nn1 (stereo unspecified)	113 to 114 °C
OC(CCl)COc1cccc(-c2nc(C(F)(F)F)c[nH]2)c1 (stereo unspecified)	181 to 183 °C
Cc1oc(-c2cccs2)nc1CC#N	185 °C
CNc1c(C)cc(N)c([N+](=O)[O-])c1C	57 °C
N#Cc1ccc2c(c1)CCC2=O	123 to 125 °C
COP(=O)(Cc1cccc2cccc(CP(=O)(OC)OC)c12)OC	168 to 170 °C
CCOC(=O)c1cc(CC)sc1Nc1cc(F)cc(F)c1[N+](=O)[O-]	74 to 75 °C
CCc1c(C)nc(OC)c(NC(=O)C(C)(C)C)c1Cc1cc(C)cc(C)c1	138 to 139 °C
O=C(O)c1cn(C2CC2)c2c(F)c(N3CCNCC3)c(F)c(F)c2c1=O	208 to 213 °C
CCCc1nc2c(N)nc(C)c(C)c2n1CCCCCS(C)(=O)=O	145 to 146 °C
CCOC(=O)c1c(CN(CC)CC)nc2sc3c(c2c1-c1ccc(OC)c(OC)c1)CCNC3	72 to 75 °C
CCOC(=O)c1c[nH]cc1C(=O)OCC	148 to 149 °C
CCn1cc2c(n1)c(N)nc1cc(O)ccc12	214 to 215 °C
Cc1cc(Nc2ccc(Cl)cc2)nc(-n2nc(C)cc2C)n1	181 to 183 °C

The remaining lines, values ahead:

melting point	Structure (SMILES)
142 to 146 °C	Cc1cccc(NC(=O)NC2N=C(C(C)C)c3cccc(C)c3N(CC(=O)C3CCCCC3)C2=O)c1 (stereo unspecified)
179 to 180 °C	Cc1ccc2c(c1)c1c(n2Cc2ccccc2)CCCC1=O
196 to 200 °C	CN1C(=O)C(C(=O)Nc2cccc(C(F)(F)F)c2)S(=O)(=O)c2ccc(Cl)cc21 (stereo unspecified)
266 to 268 °C	CC(=O)Nc1cc2c(cc1[N+](=O)[O-])[C@@H](N1CCCC1=O)[C@H](O)C(C)(C)O2 (relative stereo)
155 to 159 °C	Cc1cc(O)c(Oc2ccccc2C#N)cc1-c1ccsc1
262 °C	O=C(O)c1nn(-c2ccc(Cl)cc2Cl)c2c1SCc1cc(Cl)ccc1-2
135 °C	COc1cc(O)c(C(=O)C=Cc2ccc(SC)cc2)c(OC)c1
148 to 150 °C	CCC/C=C\c1nc(Cl)c(CO)n1Cc1ccc(-c2ccccc2)c(C(=O)O)c1
225 to 226 °C	Cc1cc(Nc2ccccn2)c(S(C)(=O)=O)cc1C(=O)N=C(N)N
87 to 88 °C	COc1ccc(CC(=O)N2CCC3(CC2)Cc2ccccc2O3)cc1
130 to 135 °C	CCOC(=O)Cn1ncc(-c2ccccc2)c1-c1ccc(O)cc1
234 to 236 °C	COc1c(C)cc(-c2nn(C(C)c3oc4ccccc4c(=O)c3-c3cccc(F)c3)c3ncnc(N)c23)cc1C (stereo unspecified)
132 to 133 °C	CC1(C)Oc2ccsc2C(N2CC(=O)NCC2=O)C1O (stereo unspecified)
117 to 120 °C	Cc1cc(C(O)(C(F)(F)F)C(F)(F)F)cc(C)c1OCCNCc1ccccc1
150 °C	CN(C)c1nc(NCc2ccc(NC(=O)c3ccc(F)cc3)cc2)c2ccc(C#N)cc2n1
172 to 173 °C	O=C(NCC1(c2ccccc2)CCCCC1)Nc1ccc(Br)cc1
193 to 195 °C	O=C1NCN(c2ccccc2)C12CCCCC2
93 to 95 °C	CCc1c(-c2ccc(O)cc2)c2cc(COCCN(CC)CC)c3cccc1n32
156 to 158 °C	COc1ccc(Cn2nnc(-c3ccc(OC)c(C(=O)NCc4ccc(F)cc4)c3)n2)cc1
172 to 173 °C	CCCn1nc2c(N)nc3ccccc3c2c1CCCc1cc(-c2ccccc2)on1
110 to 111 °C	COc1ccc(C)cc1-c1cc(F)cc2c1OC(CN)C2 (stereo unspecified)

melting point	Structure (SMILES)
201 to 203 °C	Cn1c(=O)c2c(Oc3cccc(Cl)c3)cccc2n2cnc(-c3noc(C4CC4)n3)c12
187 to 189 °C	COC(=O)c1cccc2c1nc(/C=C/c1ccc(OC)c(OC)c1)n2C
112 °C	COc1ccc([C@@H]2C[C@H]2CNC(=O)N(C)O)cc1 (relative stereo)
248 to 252 °C	COc1c(N2CC(C)C(N)C(C)(C)C2)c(F)c(N)c2c(=O)c(C(=O)O)cn(C3CC3)c12 (stereo unspecified)
158 °C	COc1ccc(Oc2ccccc2)cc1NC(=O)c1ccn2c1CSC2c1cccnc1 (stereo unspecified)
275 to 277 °C	O=C1CCC(N2Cc3cc(CNC(=O)Nc4ccc(Cl)c(-c5nc6ccccc6[nH]5)c4)ccc3C2=O)C(=O)N1 (stereo unspecified)
116 °C	O=C(O)/C=C/c1cccc(-c2nc(=O)c3ccccc3s2)n1
332 to 333 °C	O=c1c(-c2ccccn2)c(O)c2cccnc2n1-c1ccccc1
241 to 243 °C	CCCCOc1c(CN2C(=O)c3ccccc3C2=O)n(CCNC(=O)OC)c(=O)c2cc(Cl)c(Cl)cc12
192 to 194 °C	COc1cc(C(=O)Nc2ccc(N3CCOCC3)cc2C(C)=O)ccc1OCc1ccccc1
186 to 190 °C	CC(=O)N[C@@H](C)c1ccc(C(=O)O)cc1
158 to 159 °C	CC1=C(C(=O)OC(C)C)C(c2cccc([N+](=O)[O-])c2)N(C(=O)OCc2ccccc2)C(=O)N1 (stereo unspecified)
218 to 219 °C	O=C(Nc1cc(Cl)cc(Cl)c1)c1ccccc1O
105 to 107 °C	CCOC(=O)C(=O)Nc1cccc2ccccc12
54 to 64 °C	COCCN1CCc2cc(Nc3ncc(Cl)c(Nc4ccccc4S(=O)(=O)N(C)C)n3)c(OC)cc2CC1
101 to 104 °C	CCCCCCCc1ccc(C(=O)CCC(=O)O)cc1
114 to 115 °C	CC(C)C1NC(NC(=O)CCC2CCCCC2)C(=O)N(C)c2ccccc21 (stereo unspecified)
224 to 225 °C	CCCn1nc2c(N)nc3ccccc3c2c1CC(C)(C)C(N)=O
209 to 211 °C	O=C(Nc1cccnc1)c1ccc(OC(F)F)c2oc3ccccc3c12
137 to 138 °C	O=[N+]([O-])c1ccc(OC2(c3ccccc3)CCNCC2)cc1
118 °C	CC1(C)C(=O)C(c2ccc(F)c(F)c2)=C1c1ccc(S(C)(=O)=O)cc1

melting point	Structure (SMILES)
101 to 103 °C	CCOC(=O)C(C1c2ccccc2C=Cc2ccccc21)[N+](=O)[O-] (stereo unspecified)
205 to 207 °C	Cc1c(C(=O)Nc2ccc(N3CCN(C)CC3)c(C#N)c2)cnn1-c1ccc(F)cc1
218 to 220 °C	COc1ccc(Nc2ncc3cc(-c4c(Cl)cccc4Cl)c(=O)n(C)c3n2)cc1C
180 °C	CN1CC(=O)NC1=NC(=O)Nc1cccc(Cl)c1
86 to 89 °C	CN1c2ccc(C=O)cc2CCC1c1ccccc1 (stereo unspecified)
147 to 149 °C	CC(=O)NC[C@H]1CN(c2ccc(C3CCN(C(=O)COCc4ccccc4)CC3)c(F)c2)C(=O)O1
136 °C	c1coc(Cn2c(NC3CCN(CCOc4nccs4)CC3)nc3ccccc32)c1
132 to 138 °C	O=C(CC1(c2ccccc2)CC1)C(=O)Nc1ccc2c(c1)COC2=O
78 to 81 °C	Cc1cc(-n2ncc(=O)[nH]c2=O)cc(Cl)c1Oc1ccc(O)c(S(=O)(=O)c2ccccc2)c1
150 °C	CC(C(=O)O)c1ccc(C2CCCCC2)c2ccccc12 (stereo unspecified)
120 to 121 °C	CC(C)OC(=O)c1ccccc1SNc1ccc(OC(F)(F)F)cc1
70 to 72 °C	O=S(=O)(NCCc1ccc(CCO)cc1)c1cccc(C(F)(F)F)c1
155 to 156 °C	COc1ccc2c(c1)C(=O)N(CCN(C)CCN1C(=O)c3ccccc3C(C)(C)C1=O)C(=O)C2(C)C
188 to 191 °C	Cc1nc(N2CCN(Cc3ccc(F)cc3)C2=O)sc1C(=O)NCc1cocn1
132 to 133 °C	N#Cc1ccc(OCc2ccncc2)cc1F
68 to 72 °C	CCCc1c(OCC(O)COc2ccc3c(c2CCC)OC(C(=O)O)CC3=O)ccc(C(C)=O)c1O (stereo unspecified)
136 to 138 °C	CC(Cl)(Cl)C(NC(=O)c1cccc(Cl)c1)NC(=NC#N)Nc1ccccc1F (stereo unspecified)
89 to 90 °C	CCOC(=O)Cn1c(=S)c2cc(Cl)ccc2n(Cc2ccc(Br)cc2F)c1=O
95 to 97 °C	O=C(O)c1cc(F)c(F)c(C2CC2)c1F

— a melting point compilation (Tetko et al.; mined from patent text by program, amines drawn as free bases though some values may be those of a salt)
